Measured values reported in patent US20260034119A1, “5-METHOXY-N,N-[…][…], THEIR […], AND METHODS FOR TREATMENT OF NEUROLOGICAL, […], AND SUBSTANCE USE DISORDERS” (priority 2023, published 2026).
Where “and” joins values, the source holds several entries; their conditions need not be identical. Identical values can stand only once. Like-named read-outs stand apart in the source and are kept apart here.

How the values were obtained:
human 5-HT1A [1] = target: T1, human 5-HT1A (Homo sapiens, UniProt P08908); experiment: 5-HT1A-mediated cAMP reduction assay (GloSensor, HEK293-T)
T1 sequence (P08908 1-422): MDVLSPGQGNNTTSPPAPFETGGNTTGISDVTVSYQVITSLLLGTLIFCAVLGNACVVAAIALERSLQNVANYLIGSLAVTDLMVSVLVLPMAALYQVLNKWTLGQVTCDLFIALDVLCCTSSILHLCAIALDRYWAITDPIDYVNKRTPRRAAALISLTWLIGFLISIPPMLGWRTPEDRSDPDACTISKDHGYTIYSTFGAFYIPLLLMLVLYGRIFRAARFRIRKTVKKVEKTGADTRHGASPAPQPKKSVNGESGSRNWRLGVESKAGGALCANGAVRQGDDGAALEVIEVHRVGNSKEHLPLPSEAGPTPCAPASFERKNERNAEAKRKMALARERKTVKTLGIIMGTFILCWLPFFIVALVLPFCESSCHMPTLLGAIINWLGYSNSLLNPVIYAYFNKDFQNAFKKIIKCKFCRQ

5-HT1A [2] = target: T2, 5-HT1A (Homo sapiens, UniProt P08908); experiment: BRET signaling assay: 5-HT1A-mediated activation of heterotrimeric Gi1 (TRUPATH, HEK293-T); settings: for Emax: HEK-293T, read-out: Emax, 5-HT1A-mediated activation of Gi1 (BRET); for Efficacy as %5HT 5-HT1A BRET Gi1: Table 6, commercial ligands
5-HT2A = 5-HT2A (Homo sapiens, UniProt P28223); experiment: cell-based
human 5-HT1A [3] = target: T1, human 5-HT1A; experiment: cell-based
5-HT1A [4] = target: T2, 5-HT1A; experiment: cell-based
[5] = EC50 (nM) Mean BRET Gq-2A, Table 2
[6] = EC50 (nM) Mean BRET Gi1-1A, Table 2
[7] = EC50 (nM) Mean Gio(cAMP)-1A, Table 2
[8] = Activity (5-HT1A cAMP) EC50 (nM), Table 5
[9] = EC50 (nM) 5-HT1A cAMP, Table 6, commercial ligands

5-HT2A, sequence (P28223 whole entry): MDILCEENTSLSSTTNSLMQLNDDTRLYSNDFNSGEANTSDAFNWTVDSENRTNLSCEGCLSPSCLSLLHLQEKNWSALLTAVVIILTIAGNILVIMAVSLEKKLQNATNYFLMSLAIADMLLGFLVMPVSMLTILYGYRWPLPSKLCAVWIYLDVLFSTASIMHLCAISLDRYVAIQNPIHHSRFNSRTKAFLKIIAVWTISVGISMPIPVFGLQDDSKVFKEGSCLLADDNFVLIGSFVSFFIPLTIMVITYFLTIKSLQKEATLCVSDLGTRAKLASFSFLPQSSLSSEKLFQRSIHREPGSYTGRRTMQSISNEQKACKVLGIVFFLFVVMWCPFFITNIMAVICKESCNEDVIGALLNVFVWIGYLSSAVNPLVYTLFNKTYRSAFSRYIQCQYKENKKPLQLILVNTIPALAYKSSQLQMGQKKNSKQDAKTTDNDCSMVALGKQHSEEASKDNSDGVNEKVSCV

SMILES	EC50 (5-HT2A; [5]) [nM]	EC50 (human 5-HT1A [3])	EC50 (5-HT1A [4])	EC50 (5-HT2A)	other results
O=C1CC2(CCCC2)CC(=O)N1CCCCN1CCN(c2ncccn2)CC1 [Buspirone, buspirone, reference compound]	–	–	–	–	Efficacy as %5HT 5-HT1A cAMP (human 5-HT1A [1]; Table 6, commercial ligands): 96.0 %5HT; Emax (5-HT1A [2]): 93.4%; Efficacy as %5HT 5-HT1A BRET Gi1 (5-HT1A [2]): 93.4 %5HT
COc1ccc2[nH]cc(CCN(C)C)c2c1F [Compound 1]	86.5	–	–	–	EC50 (human 5-HT1A [1]; pEC50 Gio(cAMP)-1A, Table 2): 0.186 nM; EC50 (5-HT1A [2]; EC50 (nM) Mean BRET Gi1-1A): 1.77 nM
CCN(C)CCc1c[nH]c2ccc(OC)c(F)c12 [Compound 2]	99.3	–	–	–	EC50 (human 5-HT1A [1]; pEC50 Gio(cAMP)-1A, Table 2): 0.316 nM; EC50 (5-HT1A [2]; [6]): 1.77 nM
CCN(CC)CCc1c[nH]c2ccc(OC)c(F)c12 [Compound 3]	673	–	–	–	EC50 (human 5-HT1A [1]; [7]): 0.21 nM; EC50 (human 5-HT1A [1]; pEC50 Gio(cAMP)-1A, Table 2): 0.204 nM; EC50 (5-HT1A [2]; [6]): 3.18 nM
CCCN(C)CCc1c[nH]c2ccc(OC)c(F)c12 [Compound 4]	115	–	–	–	EC50 (human 5-HT1A [1]; pEC50 Gio(cAMP)-1A, Table 2): 0.417 nM; EC50 (5-HT1A [2]; [6]): 3.06 nM
CCCN(CC)CCc1c[nH]c2ccc(OC)c(F)c12 [Compound 5]	155	–	–	–	EC50 (human 5-HT1A [1]; pEC50 Gio(cAMP)-1A, Table 2): 0.151 nM; EC50 (5-HT1A [2]; [6]): 0.95 nM
CCCN(CCC)CCc1c[nH]c2ccc(OC)c(F)c12 [Compound 6]	142	–	–	–	EC50 (human 5-HT1A [1]; [7]): 1.31 nM; EC50 (5-HT1A [2]; [6]): 3.7 nM
COc1ccc2[nH]cc(CCN(C)C(C)C)c2c1F [Compound 7]	152	–	–	–	EC50 (human 5-HT1A [1]; [7]): 2.98 nM; EC50 (5-HT1A [2]; [6]): 14.2 nM
CCCN(CCc1c[nH]c2ccc(OC)c(F)c12)C(C)C [Compound 8]	249	–	–	–	EC50 (human 5-HT1A [1]; [7]): 5.96 nM; EC50 (human 5-HT1A [1]; pEC50 Gio(cAMP)-1A, Table 2): 5.89 nM; EC50 (5-HT1A [2]; [6]): 16.8 nM; EC50 (5-HT1A [2]; pEC50 BRET Gi1-1A, Table 2): 16.6 nM
CCN(C)CCc1c[nH]c2ccc(OC)cc12 [Compound 9]	–	4.44 nM	25.9 nM	37.7 nM	–
COc1ccc2[nH]cc(CCN(C(C)C)C(C)C)c2c1F [Compound 9]	338	–	–	–	EC50 (human 5-HT1A [1]; [7]): 6 nM; EC50 (5-HT1A [2]; [6]): 35.8 nM
C=CCN(C)CCc1c[nH]c2ccc(OC)c(F)c12 [Compound 10]	156	–	–	–	EC50 (human 5-HT1A [1]; [7]): 2.57 nM; EC50 (5-HT1A [2]; [6]): 8.41 nM
CCCN(C)CCc1c[nH]c2ccc(OC)cc12 [Compound 10]	–	18.6 nM	60.3 nM	28.3 nM	–
CCN(CC)CCc1c[nH]c2ccc(OC)cc12 [Compound 11]	–	11 nM	37.1 nM	172 nM	–
COc1ccc2[nH]cc(CCN3CCCC3)c2c1F [Compound 11]	300	–	–	–	EC50 (human 5-HT1A [1]; [7]): 0.03 nM; EC50 (human 5-HT1A [1]; pEC50 Gio(cAMP)-1A, Table 2): 0.0282 nM; EC50 (5-HT1A [2]; pEC50 BRET Gi1-1A, Table 2): 0.372 nM
CCCN(CC)CCc1c[nH]c2ccc(OC)cc12 [Compound 12]	–	2.47 nM	8.36 nM	22.1 nM	–
COc1ccc2[nH]cc(CCN3CCCCC3)c2c1F [Compound 12]	–	–	–	–	EC50 (human 5-HT1A [1]; [7]): 2.42 nM; EC50 (5-HT1A [2]; [6]): 8.97 nM
CCCN(CCC)CCc1c[nH]c2ccc(OC)cc12 [Compound 13]	–	3.57 nM and 4.37 nM	15.4 nM	20.2 nM	–
COc1ccc2[nH]cc(CCN3CC=CC3)c2c1F [Compound 13]	120	–	–	–	EC50 (human 5-HT1A [1]; pEC50 Gio(cAMP)-1A, Table 2): 0.00229 nM; EC50 (5-HT1A [2]; pEC50 BRET Gi1-1A, Table 2): 0.219 nM
COc1ccc2[nH]cc(CCN(C)C(C)C)c2c1 [Compound 14]	–	51.8 nM	112 nM	17.3 nM	–

SMILES	EC50 (5-HT2A; [5]) [nM]	EC50 (human 5-HT1A [3])	EC50 (5-HT1A [4])	EC50 (5-HT2A)	other results
CCCN(CCc1c[nH]c2ccc(OC)cc12)C(C)C [Compound 15]	–	26.7 nM	101 nM and 100 nM	51.2 nM	–
C=CCN(C)CCc1c[nH]c2ccc(OC)cc12 [Compound 16]	–	9.64 nM	42.7 nM	24.5 nM and 25.7 nM	–
CN(C)CCc1c[nH]c2ccc(O)c(F)c12 [Compound 16]	7.46	–	–	–	EC50 (human 5-HT1A [1]; pEC50 Gio(cAMP)-1A, Table 2): 0.251 nM; EC50 (5-HT1A [2]; [6]): 1.13 nM
COc1ccc2[nH]cc(CCN3CCCC3)c2c1 [Compound 18]	–	0.16 nM and 0.166 nM	2.13 nM	81.5 nM	–
COc1ccc2[nH]cc(CCN3CC=CC3)c2c1 [Compound 21, 3-(2-(2,5-dihydro-1H-pyrrol-1-yl)ethyl)-5-methoxy-1H-indole]	–	–	0.257 nM	9.91 nM	EC50 (5-HT1A [2]; Gi BRET EC50): 0.3 nM; further increase in potency at 5-HT1A (5-HT1A [2]; relative to 5-MeO-PyrT): ~8 fold
CCN(CC)CCc1c[nH]c2ccc(OC)c(F)c12 [Compound 27, N,N-diethyl-2-(4-fluoro-5-methoxy-1H-indol-3-yl)ethan-1-amine]	–	0.21 nM and 0.204 nM	3.18 nM	673 nM	–
COc1ccc2[nH]cc(CCN(C)C(C)C)c2c1F [Compound 31, N-(2-(4-fluoro-5-methoxy-1H-indol-3-yl)ethyl)-N-methylpropan-2-amine]	–	2.98 nM	14.2 nM	152 nM	–
CCCN(CCc1c[nH]c2ccc(OC)c(F)c12)C(C)C [Compound 32, N-(2-(4-fluoro-5-methoxy-1H-indol-3-yl)ethyl)-N-isopropylpropan-1-amine]	–	5.96 nM and 5.89 nM	16.8 nM and 16.6 nM	249 nM	–
COc1ccc2[nH]cc(CCN(C(C)C)C(C)C)c2c1F [Compound 33, N-(2-(4-fluoro-5-methoxy-1H-indol-3-yl)ethyl)-N-isopropylpropan-2-amine]	–	6 nM	35.8 nM	338 nM	–
COc1ccc2[nH]cc(CCN3CCCC3)c2c1F [Compound 35, 4-fluoro-5-methoxy-3-(2-(pyrrolidin-1-yl)ethyl)-1H-indole]	–	0.03 nM and 0.0282 nM	0.372 nM	300 nM	–
COc1ccc2[nH]cc(CCN3CCCCC3)c2c1F [Compound 36, 4-fluoro-5-methoxy-3-(2-(piperidin-1-yl)ethyl)-1H-indole]	–	2.42 nM	8.97 nM	–	–
CN(C)CCc1c[nH]c2ccc(O)cc12 [Compound 49, Bufotenine, reference compound]	–	–	9.29 nM	–	–
CN(C)CCc1c[nH]c2cccc(O)c12 [Compound 52, Psilocin, reference compound]	–	512 nM	1080 nM and 1070 nM	–	–
COc1ccc2occ(CCN3CCCC3)c2c1 [Compound 77, 1-(2-(5-methoxybenzofuran-3-yl)ethyl)pyrrolidine]	–	–	–	–	EC50 (human 5-HT1A [1]; [8]): 7.19 nM
COc1ccc2occ(CCN3CCCCC3)c2c1 [Compound 78, 1-(2-(5-methoxybenzofuran-3-yl)ethyl)piperidine]	–	–	–	–	EC50 (human 5-HT1A [1]; [8]): 416 nM
COc1ccc2occ(CCN3CC=CCC3)c2c1 [Compound 79, 1-(2-(5-methoxybenzofuran-3-yl)ethyl)-1,2,3,6-tetrahydropyridine]	–	–	–	–	EC50 (human 5-HT1A [1]; [8]): 7130 nM
CC1(C)CC(=O)N(CCCCN2CCN(c3ncccn3)CC2)C(=O)C1 [Gepiron, Gepirone, reference compound]	–	–	–	–	Efficacy as %5HT 5-HT1A cAMP (human 5-HT1A [1]; Table 6, commercial ligands): 95.4 %5HT
c1ccc2c(N3CCNCC3)cccc2c1 [N-(1-naphthyl)piperazine, N-(1-Napthyl)piperazine, reference compound]	–	–	–	–	EC50 (human 5-HT1A [1]; [9]): 50.3 nM; Efficacy as %5HT 5-HT1A cAMP (human 5-HT1A [1]; Table 6, commercial ligands): 137.0 %5HT
O=C1[C@@H]2[C@H]3CC[C@H](C3)[C@@H]2C(=O)N1CCCCN1CCN(c2ncccn2)CC1 [Tandospirone, reference compound]	–	–	–	–	EC50 (human 5-HT1A [1]; [9]): 1.51 nM; Efficacy as %5HT 5-HT1A cAMP (human 5-HT1A [1]; Table 6, commercial ligands): 96.3 %5HT
N#Cc1ccc2[nH]cc(CCCCN3CCN(c4ccc5oc(C(N)=O)cc5c4)CC3)c2c1 [Vilazodone, vilazodone, reference compound]	–	–	–	–	Efficacy as %5HT 5-HT1A cAMP (human 5-HT1A [1]; Table 6, commercial ligands): 110.5 %5HT; activity at concentrations as low as (5-HT1A [2]; 5-HT1A Gi1 BRET): 30 pM; Emax (5-HT1A [2]): 97.4%; Efficacy as %5HT 5-HT1A BRET Gi1 (5-HT1A [2]): 97.4 %5HT
